Experimental findings from patent US10058577B2, “Thermo-stable strains, products and methods thereof” (TRIPHASE PHARMACEUTICALS PVT. LTD., priority 2014, dated 2018) are described below.

The subject of assay [1] is Lactobacillus plantarum TSP-Lp1. Put plainly: Antibiotic susceptibility by disk diffusion method. The format is cell-based. The settings on record: for zone of inhibition at 30 µg/disc: TSPLP1, 30 μg; for zone of inhibition at 10 µg/disc: TSPLP1, 10 μg; for zone of inhibition at 5 µg/disc: TSPLP1, 5 μg. As for the experimental part:
(§1) In order to ascertain the sensitivity of the thermostable strains in the food products towards antibiotics, Antibiotic susceptibility profile for Lactobacillus acidophilus is created by disk diffusion method. The susceptibility criteria used is established by Charteris et al. The Lactobacillus acidophilus is grown in Man Rogosa Sharpe Agar (MRSA).
The same set of study as the previous example is conducted using Lactobacillus plantarum strain of the present disclosure and the results for the study are depicted in Table No. 13 as below. The susceptibility criteria used is established by Charteris et al. The Lactobacillus acidophilus is grown in Man Rogosa Sharpe Agar, […]
Background: In agar diffusion tests the substance spreads into inoculated agar from a disc or well.

Assay [2] relates to Lactobacillus acidophilus TSP-La1. Put plainly: Antibiotic susceptibility by disk diffusion method. It is filed as cell-based. The settings on record: for zone of inhibition at 30 µg/disc: TSPLA1, 30 μg; for zone of inhibition at 10 µg/disc: TSPLA1, 10 μg; for zone of inhibition at 5 µg/disc: TSPLA1, 5 μg. As for the experimental part:
as §1
67.15 grams is suspended in 1000 ml distilled water and heated to boiling to dissolve the medium completely. It is sterilized by autoclaving at 15 lbs pressure (121° C.) for 20 minutes, mixed well and poured into sterile Petri plates.
The concentration of the tested antibiotics has been included depending upon their minimum inhibitory concentrations.

Setting [3] is: Lactiplantibacillus plantarum, read-out: MIC Results.
Where [4] appears, read: Lactobacillus acidophilus, read-out: MIC Results.

For `CC1(C)S[C@@H]2[C@H](NC(=O)[C@H](N)c3ccc(O)cc3)C(=O)N2[C@H]1C(=O)O` [Amoxicillin], the Resistant/Sensitive result in assay [1] (30 μg) and in assay [2] (30 μg) was “Sensitive” in each case. The zone of inhibition at 30 µg/disc in assay [1] (setting [3]) was found to be 39 mm; in assay [2] (setting [4]) it was 32 mm.
For the compound `CC1(C)S[C@@H]2[C@H](NC(=O)[C@H](N)c3ccccc3)C(=O)N2[C@H]1C(=O)O` [Ampicillin], in assay [1] (10 μg), the “MIC Results” value was “No Zone” and the Resistant/Sensitive result is “Resistant”. Further, the Resistant/Sensitive result in assay [2] (10 μg) is given as “Resistant”. The zone of inhibition at 10 µg/disc in assay [2] (setting [4]) was determined as 10 mm.
As for `CC(=O)OCC1=C(C(=O)O)N2C(=O)[C@@H](NC(=O)Cc3cccs3)[C@H]2SC1` [Cephalothin], the Resistant/Sensitive result in assay [1] (30 μg) and in assay [2] (30 μg) was “Sensitive” in each case. Also, the zone of inhibition at 30 µg/disc came out at 23 mm in assay [1] (setting [3]) and 25 mm in assay [2] (setting [4]).
Consider `O=C(N[C@H](CO)[C@H](O)c1ccc([N+](=O)[O-])cc1)C(Cl)Cl` [Chloramphenicol], for which the Resistant/Sensitive result in assay [1] (30 μg) and in assay [2] (30 μg) was “Sensitive” throughout. Besides, the zone of inhibition at 30 µg/disc turned out to be 31 mm in assay [1] (setting [3]) and 29 mm in assay [2] (setting [4]).
Consider `O=C(O)c1cn(C2CC2)c2cc(N3CCNCC3)c(F)cc2c1=O` [Ciprofloxacin], for which the Resistant/Sensitive entry in assay [1] (10 μg) is reported as “Sensitive”. In addition, in assay [1] (setting [3]), the zone of inhibition at 10 µg/disc was 31 mm.
With `CCC[C@@H]1C[C@@H](C(=O)N[C@@H]([C@H]2O[C@H](SC)[C@H](O)[C@@H](O)[C@H]2O)[C@H](C)Cl)N(C)C1` [Clindamycin], the zone of inhibition at 2 µg/disc in assay [1] (Lactiplantibacillus plantarum, TSPLP1, 2 μg, read-out: MIC Results) is 34 mm; in assay [2] (Lactobacillus acidophilus, TSPLA1, 2 μg, read-out: MIC Results) it was 31 mm.
Turning to `CC[C@H]1OC(=O)[C@H](C)[C@@H](O[C@H]2C[C@@](C)(OC)[C@@H](O)[C@H](C)O2)[C@H](C)[C@@H](O[C@@H]2O[C@H](C)C[C@H](N(C)C)[C@H]2O)[C@](C)(O)C[C@@H](C)C(=O)[C@H](C)[C@@H](O)[C@]1(C)O` [Erythromycin], the Resistant/Sensitive entry is recorded as “Sensitive” in assay [1] (15 μg) and “Resistant” in assay [2] (15 μg). Moreover, the zone of inhibition at 15 µg/disc in assay [1] (Lactiplantibacillus plantarum, TSPLP1, 15 μg, read-out: MIC Results) came out at 14 mm; in assay [2] (Lactobacillus acidophilus, TSPLA1, 15 μg, read-out: MIC Results), 14 mm.
For the compound `COc1cccc(OC)c1C(=O)N[C@@H]1C(=O)N2[C@@H]1SC(C)(C)[C@@H]2C(=O)O` [Methicillin], the Resistant/Sensitive entry in assay [1] (5 μg) and in assay [2] (5 μg) was “Sensitive” in each case. In addition, the figures for the zone of inhibition at 5 µg/disc in assay [1] (setting [3]) and in assay [2] (setting [4]) were 15 mm and 30 mm, respectively.
Regarding `Cc1onc(-c2ccccc2)c1C(=O)N[C@@H]1C(=O)N2[C@@H]1SC(C)(C)[C@@H]2C(=O)O` [Oxacillin], in assay [1] (1 μg), the “MIC Results” value is given as “No Zone” and the Resistant/Sensitive entry is on record as “Resistant”. Moreover, in assay [2] (1 μg), the “MIC Results” value was “No Zone” and the Resistant/Sensitive entry is “Resistant”.
With `CO[C@H]1/C=C/O[C@@]2(C)Oc3c(C)c(O)c4c(O)c(c(/C=N/N5CCN(C)CC5)c(O)c4c3C2=O)NC(=O)/C(C)=C\C=C\[C@H](C)[C@H](O)[C@@H](C)[C@@H](O)[C@@H](C)[C@H](OC(C)=O)[C@@H]1C` [Rifampicin], the values for the zone of inhibition at 5 µg/disc in assay [1] (setting [3]) and in assay [2] (setting [4]) were 43 mm and 35 mm, respectively.
As for `[H]/N=C(/N)N[C@H]1[C@H](O)[C@@H](O)[C@H](O[C@@H]2O[C@@H](C)[C@](O)(C=O)[C@H]2O[C@@H]2O[C@@H](CO)[C@H](O)[C@@H](O)[C@@H]2NC)[C@@H](N/C(N)=N\[H])[C@@H]1O` [Streptomycin], the Resistant/Sensitive result in assay [1] (10 μg) and in assay [2] (10 μg) was “Sensitive” in each case. Also, the zone of inhibition at 10 µg/disc was 20 mm in assay [1] (setting [3]) and 18 mm in assay [2] (setting [4]).
Turning to `CN(C)[C@@H]1C(O)=C(C(N)=O)C(=O)[C@@]2(O)C(O)=C3C(=O)c4c(O)cccc4[C@@](C)(O)[C@H]3C[C@@H]12` [Tetracycline], the values for the zone of inhibition at 30 µg/disc in assay [1] (setting [3]) and in assay [2] (setting [4]) were 14 mm and 11 mm, respectively.
In the case of `CN[C@H](CC(C)C)C(=O)N[C@H]1C(=O)N[C@@H](CC(N)=O)C(=O)N[C@H]2C(=O)N[C@H]3C(=O)N[C@H](C(=O)N[C@H](C(=O)O)c4cc(O)cc(O)c4-c4cc3ccc4O)[C@H](O)c3ccc(c(Cl)c3)Oc3cc2cc(c3O[C@@H]2O[C@H](CO)[C@@H](O)[C@H](O)[C@H]2O[C@H]2C[C@](C)(N)[C@H](O)[C@H](C)O2)Oc2ccc(cc2Cl)[C@H]1O` [Vancomycin], in assay [1] (30 μg), the “MIC Results” value is “No Zone” and the Resistant/Sensitive entry was “Resistant”. Also, in assay [2] (30 μg), the “MIC Results” value is reported as “No Zone” and the Resistant/Sensitive entry was “Resistant”.
On to Gentamycin, for which, in assay [1] (10 μg), the “MIC Results” value came to 8 mm and the Resistant/Sensitive entry was “Resistant”. In addition, in assay [2] (10 μg), the “MIC Results” value is 10 mm and the Resistant/Sensitive entry is on record as “Resistant”.
